Measurements from patent publication US20210009959A1, “METHODS FOR ENHANCING OSTEOGENIC DIFFERENTIATION USING VITAMIN D” (priority 2019, published 2021).

Tested on: human adipose stem cells (hASCs)
Assay: ALP activity of hASCs in 3D PLGA/β-TCP scaffold, dynamic and static culture
Assay type: cell-based
Protocol: In one embodiment, dynamic culture of pre-treated hASCs with calcitriol, using the modified perfusion bioreactor comprises the following steps. In one embodiment, the scaffolds are 3D PLGA/β-TCP. The modified perfusion bioreactor […] comprises five scaffolds, loaded with a total of 70 ml of culture medium as shown in FIG. 2. At another step, 30 ml of the culture medium is replaced twice a week for a total period of two weeks. At another step, the culture medium in the modified perfusion bioreactor 200 is distributed to the five scaffolds with the flow rate of about 5 ml/min using the peristaltic pump 202.
In one embodiment, the method of static culture of pre-treated hASCs is continued in a flask bioreactor with the same volume of culture medium utilized in the dynamic culture. Further, the methods of culturing the hASCs are divided into different groups. In one embodiment, the methods of culturing of hASCs are divided into four groups such as, static culture of non-treated hASCs, static culture of pre-treated hASCs with calcitriol, dynamic culture of non-treated hASCs and dynamic culture of pre-treated hASCs with calcitriol.
Referring to FIG. 10, the effects of dynamic pre-treated/non-treated hASCs versus static pre-treated/non-treated hASCs on ALP activity of hASCs are disclosed, where the hASCs are seeded in 3D PLGA/β-TCP scaffold. In one embodiment, the hASCs are pre-treated with or without 10 nM calcitriol for 30 minutes and cultured in the modified perfusion bioreactor 200 (dynamic culture) and flask bioreactor (static culture). The ALP activity of hASCs after 7 days perfusion culture of pre-treated hASCs is increased by 9.2-fold compared to static culture of pre-treated hASCs, and the ALP activity of non-treated hASCs is increased by 10.3-fold compared to static culture of non-treated hASCs.
The 14 days of perfusion culture of non-treated hASCs increases ALP activity by 1.4-fold relative to static counterpart, and perfusion culture of pre-treated hASCs increases ALP activity by 2.2-fold relative to static culture of pre-treated hASCs. Moreover, calcitriol pre-treatment increases ALP activity of hASCs by 2.8-fold at day 7 and 1.3-fold at day 14 compared to non-treated hASCs in static condition. On the whole, the highest ALP activity is observed at day 7, which belongs to perfusion culture of pre-treated hASCs with calcitriol.

C=C1/C(=C\C=C2/CCC[C@]3(C)[C@@H]([C@H](C)CCCC(C)(C)O)CC[C@@H]23)C[C@@H](O)C[C@@H]1O [calcitriol, 1,25-dihydroxyvitamin D3]
ALP activity, increase (7 days, perfusion culture of pre-treated hASCs vs static culture of pre-treated hASCs): 9.2 fold
ALP activity, increase (7 days, perfusion culture of pre-treated vs perfusion culture of non-treated hASCs): 2.6 fold
ALP activity, increase (14 days, perfusion culture of pre-treated vs static culture of pre-treated hASCs): 2.2 fold
ALP activity, increase (static condition, day 7, pre-treated vs non-treated hASCs): 2.8 fold
ALP activity, increase (static condition, day 14, pre-treated vs non-treated hASCs): 1.3 fold
